Reference: patent US20080095786A9, “Compositions And Methods For Preventing And Treating Endotoxin-Related Diseases And Conditions” (priority 2003, published 2008)

How the values were obtained:
[1] = Antioxidant screening experiments: stability of E5564 to free-radical oxidation; settings: for Comments (effectiveness of antioxidant in stabilizing E5564 to oxidation): 18-22 hours
Description: We tested several antioxidant compounds to determine whether they impact the stability of E5564 to free-radical oxidation.

[2] = Relative stability of E5564 in aqueous solution by formation of major oxidative degradants (FIG. 1); type: physicochemical; settings: inclusion of BHA, 7 μg/vial
Description: FIG. 1 is a graph showing the relative stability of E5564 in aqueous solution prepared with different drug substance lots, as measured by the formation of major oxidative degradants.
The following is a detailed description of an example of a method for formulating E5564. As is discussed further below, key features of this method include the following. A small amount (7 μg/vial) of butylated hydroxyanisole (BHA) was added to the formulation to prevent oxidation of the E5564 in aqueous solution. […] In addition, the sodium content of the solution was lowered by replacing sodium phosphate salts with phosphoric acid for pH adjustment, to enhance micelle size stability during the freeze-drying manufacturing step, and a high shelf temperature was used in the freeze-drying step of the process.

[3] = Stabilization of E5564 micelle size during lyophilization (freeze-drying); settings: for Micelle Size (hydrodynamic diameter): after lyophilization; for Stabilizing the micelle size of E5564 during freeze-drying: disaccharide in formulation
[4] = time 0-4 hours, E5564 solution with the labelled antioxidant
[5] = time 18-22 hours, E5564 solution with the labelled antioxidant (row 'none' = E5564 without antioxidant)
[6] = time 0 hours, E5564 solution with the labelled antioxidant (row 'none' = E5564 without antioxidant)

| Compound | Comments (effectiveness of antioxidant in stabilizing E5564 to oxidation) [1] | E5564 conc. (% initial) [1, 4] | E5564 conc. (% initial) [1, 5] | E5564 conc. (% initial) [1, 6] | Major Oxidative Degradant [1, 5] | other results |
| --- | --- | --- | --- | --- | --- | --- |
| O[C@H](CS)[C@H](O)CS (racemic) [dithiothreitol] | effective | – | – | – | – | – |
| O=C1O[C@H]([C@@H](O)CO)C(O)=C1O [Ascorbic Acid] | Not useful, sta- | 100 % initial | 97.4 % initial | – | – | – |
| CCCCCCCCCCCCCCCC(=O)OC[C@H](O)[C@H]1OC(=O)C(O)=C1O [Ascorbyl Palmitate] | Not useful, sta- | 100 % initial | 92.4 % initial | – | – | – |
| COc1ccc(O)c(C(C)(C)C)c1 [BHA, butylated hydroxyanisole] | Effective | – | 102.3 % initial | 100 % initial | 0.27 | Major Oxidative Degradant [1, 6]: 0.68; Stability of E5564 drug product in solution [2]: increases its stability |
| Cc1cc(C(C)(C)C)c(O)c(C(C)(C)C)c1 [BHT, butylated hydroxytoluene] | Effective | – | 102.8 % initial | 100 % initial | – | – |
| CCCCCC/C=C\CCCCCCCCCC(=O)N[C@H]1[C@H](OC[C@H]2O[C@H](OP(=O)([O-])[O-])[C@H](NC(=O)CC(=O)CCCCCCCCCCC)[C@@H](OCCCCCCCCCC)[C@@H]2O)O[C@H](COC)[C@@H](OP(=O)([O-])[O-])[C@@H]1OCC[C@@H](CCCCCCC)OC.[Na+].[Na+].[Na+].[Na+] [E5564] | Rapid degradation | – | 91.3 % initial | 100 % initial | 6.02 | Stability of micelle size ([3]; 2 mM Na+ in formulation (excluding Na+ from the drug)): good stability; Maintaining the desired micelle size during freeze-drying ([3]; 10 mM Na+ in formulation (excluding sodium from the drug)): works for some, but not all, lots; Micelle Size (hydrodynamic diameter) ([3]; 1% (w/v) lactose in formulation): 16 nm; Micelle Size (hydrodynamic diameter) ([3]; 2% (w/v) lactose in formulation): 13 nm; Micelle Size (hydrodynamic diameter) ([3]; 5% (w/v) lactose in formulation): 8 nm; Micelle Size (hydrodynamic diameter) ([3]; 10% (w/v) lactose in formulation): 7 nm; Major Oxidative Degradant [1, 6]: 1.12 |
| OCC(O)CS (centres unmarked) [Monothioglycerol, monothioglycerol] | Effective | 100 % initial | 101.3 % initial | – | – | – |
| CCCOC(=O)c1cc(O)c(O)c(O)c1 [Propyl Gallate, propyl gallate] | Effective | – | 100.6 % initial | 100 % initial | – | – |
| O=S([O-])[O-].[Na+].[Na+] [Sodium Sulfite, sodium sulfite] | Effective | 100 % initial | 101.8 % initial | – | 0.25 | Major Oxidative Degradant [1, 4]: 0.13 |
| O=S([O-])([O-])=S.[Na+].[Na+] [Sodium Thiosulfate, sodium thiosulfate] | Effective | 100 % initial | 100.2 % initial | – | 0.19 | Major Oxidative Degradant [1, 4]: 0.09 |
| CC(=O)Oc1c(C)c(C)c2c(c1C)CCC(C)(CCC[C@H](C)CCC[C@H](C)CCCC(C)C)O2 (some centres unmarked) [Vitamin E Acetate] | – | 100 % initial | 94.2 % initial | – | – | – |
| OC[C@H]1O[C@@H](O[C@H]2[C@H](O)[C@@H](O)C(O)O[C@@H]2CO)[C@H](O)[C@@H](O)[C@H]1O (some centres unmarked) [lactose] | – | – | – | – | – | Stabilizing the micelle size of E5564 during freeze-drying [3]: effective |
| OC[C@H]1O[C@@](CO)(O[C@H]2O[C@H](CO)[C@@H](O)[C@H](O)[C@H]2O)[C@@H](O)[C@@H]1O [sucrose] | – | – | – | – | – | Stabilizing the micelle size of E5564 during freeze-drying [3]: effective |
